Experimental data published in patent US20250188150A1, “PEPTIDES FOR THE TREATMENT OF FIBROSIS” (Technion Research & Development Foundation Limited, priority 2022, published 2025).

Experiments:
LOXL3 [1] = target: T1, LOXL3 (Homo sapiens, UniProt P58215); assay: Spreading and adhesion of Pax-GFP cells on LOXL3-treated FN with or without βAPN; assay type: cell-based; design: purchased R&D systems 6069-AO
T1 sequence (P58215 26-753): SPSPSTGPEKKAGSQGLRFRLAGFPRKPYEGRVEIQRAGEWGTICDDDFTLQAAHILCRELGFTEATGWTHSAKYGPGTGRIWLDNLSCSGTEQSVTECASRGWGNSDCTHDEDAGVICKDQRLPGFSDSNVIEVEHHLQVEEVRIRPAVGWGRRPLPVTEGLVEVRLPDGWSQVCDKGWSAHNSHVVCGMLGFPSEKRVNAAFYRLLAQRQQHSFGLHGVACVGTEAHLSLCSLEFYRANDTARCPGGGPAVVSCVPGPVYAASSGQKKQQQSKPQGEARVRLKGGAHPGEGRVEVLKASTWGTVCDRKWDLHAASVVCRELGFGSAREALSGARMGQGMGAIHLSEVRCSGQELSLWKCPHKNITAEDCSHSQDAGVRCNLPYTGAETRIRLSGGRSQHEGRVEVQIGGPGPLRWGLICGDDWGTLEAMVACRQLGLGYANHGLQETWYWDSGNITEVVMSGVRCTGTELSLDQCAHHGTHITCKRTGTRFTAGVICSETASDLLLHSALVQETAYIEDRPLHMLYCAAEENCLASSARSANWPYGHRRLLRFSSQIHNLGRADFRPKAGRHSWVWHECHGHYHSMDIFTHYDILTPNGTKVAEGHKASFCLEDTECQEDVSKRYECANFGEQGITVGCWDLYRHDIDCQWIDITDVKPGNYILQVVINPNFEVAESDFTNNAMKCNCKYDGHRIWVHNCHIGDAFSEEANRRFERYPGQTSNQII
Protocol: Spreading and soft gel experiments: Ibidi 8-wellplates (Ibidi, 190814/1) were coated with human plasma FN (hFN, Sigma-Aldrich, FC010-10MG, 10 μg/ml) for 1 hour at 37° C. Afterwards, the samples were treated with human recombinant LOXL3 (RhLOXL3, R&D systems, 6069-AO) or LOXL2 (RhLOXL2, R&D systems, 2639-AO) for 5 hours (or sodium borate buffer 50 mM as control), with or without 200 mM βAPN (Sigma, A3134-25G) and then washed. Then, cells were seeded on the FN matrix and fixed at varying time points after spreading, followed by immunostaining. For soft gel experiments, Ibidi 8-well plates were covered with silicone gels (DOWSIL, CY 52-276 A&B), prepared at different rigidities that were previously calibrated and described (42) previous to FN coating. Images were acquired using an LSM800 confocal microscope (Zeiss) with Airyscan function and 20× or 63× objectives. […]
Nascent adhesion formation, even on very stiff matrices, requires at least four RGD (Arg-Gly-Asp) ligands that are localized within ˜60 nm from each other (35, 36). […] Towards that end, following enzymatic treatment, FN was coated on glass coverslips and Pax-GFP cells were added and shortly after (15 or 30 minutes) fixed and analyzed.

LOXL3 [2] = target: T1, LOXL3; assay: Oxidation assay of peptides by LOXL3; assay type: biochemical; details: for oxidation of the peptide by LOXL3: oxidation assay
lung fibroblasts = assay: Lung fibroblast proliferation (culture confluency) with peptides; assay type: cell-based; details: following 72 hours in culture
Text: Note the lack of effect in the first day of culturing (G).

HDF cells = assay: HDF cell area after exposure to peptides; assay type: cell-based, human; details: HDF on glass without external FN coating, fixed after 1 week; compared with control peptides or untreated sample
Protocol: (§1) Adhesion, cell area andfibronectin analysis: All of the adhesion and fibronectin fibrils analyses shown in this paper were performed using the trainable Weka segmentation plugin (41) of ImageJ (NIH) software.
Representative images (FIGS. 9A-E) of HDF cell contour following exposure to the different peptides (9B—SEQ ID NO: 21, 9C—SEQ ID NO: 22; 9D—SEQ ID NO: 19; 9E—SEQ ID NO: 20), seeded on glass without external FN coating and fixed after 1 week (A-E, scale=100 μm) illustrate that inhibitor peptides reduce cell size.

[3] = system: human dermal fibroblast (HDF) cells; assay: Fibronectin fibrillogenesis (FN immunostaining) under HDF cells exposed to peptides; assay type: cell-based; details: HDF on glass without external FN coating, fixed after 1 week; compared with control peptides (FN1-3, FN1-9) or untreated sample
Protocol: as §1
Immunofluorescence: Cells were fixed with 4% paraformaldehyde solution (36% stock, Sigma-Aldrich, 50-00-0, diluted with PBS) and permeabilized with 0.1% Triton X-100 in PBS (PBT 0.1%). Primary antibodies were incubated with the fixed cells over night at 4° C. After, secondary antibodies and phalloidin were incubated for 1 hour at room temperature. For dSTORM imaging, a second 10 minutes fixation was performed at the end of the immunostaining protocol.
Representative images (FIGS. 8A-E) of fibronectin immunostaining (color-coded for intensity) underneath human dermal fibroblast (HDF) cells exposed to the different peptides (8B—SEQ ID NO: 21, 8C—SEQ ID NO: 22; 8D—SEQ ID NO: 19; 8E—SEQ ID NO: 20), seeded on glass without external FN coating and fixed after 1 week (A-E, scale=20 μm) illustrate that inhibitor peptides block fibronectin fibrillogenesis.

Molecule	cell spreading on LOXL3-treated FN (LOXL3 [1]; βAPN added following the FN treatment, compared to treated FN without the inhibitor)	increases in adhesion sizes and cell areas on LOXL3-treated FN (LOXL3 [1]; βAPN added to the FN-LOXL3 mix throughout the reaction, glass, 15 minutes)	effect on LOXL3 oxidation of inhibitor peptides (LOXL3 [2]; addition of βAPN to the oxidation assay)	culture confluency (cell proliferation) (lung fibroblasts)	oxidation of the peptide by LOXL3 (LOXL3 [2])	cell area (HDF cells)	total fibronectin fibrils [3]
N#CCCN [βAPN, beta-aminopropionitrile]	no difference was observed in cell spreading	blocked	oxidation is inhibited				
DQCQDSETGTFYQIGDSWEKYVHGVRYQCYCYGRGIGEWHCQPL (FN1-9 (control peptide))				not with the control peptide (FN1-9) inhibit cell proliferation	not the control peptides (FN1-3 and FN1-9) undergo oxidation by LOXL3		
ETCFDKYTGNTYRVGDTYERPKDSMIWDCTCIGAGRGRISCTIA (FN1-2 (Inhibitor peptide) long version of FN1-2)				inhibit cell proliferation	undergo oxidation by LOXL3	significant reduction	reduction in fibrils
